According to patent publication US20240189279A1, “IMMUNOMODULATORY COMPOSITIONS AND METHODS OF USE THEREOF” (THE TEXAS A&M UNIVERSITY SYSTEM, priority 2022, published 2024):

Legend:
[1] = test system: AMPK; test: AMPK Western blot analysis of liver tissue of WD mice; format: in vivo, mice (male B6 129SF1/J); details: week 16; dose-dependent, reverses WD-induced downregulation
Source text: Animal experiments. Male B6 129SF1/J mice at 6 weeks of age were obtained from Jackson Laboratories (Bar Harbor, ME). Mice were acclimatized to the animal facility for one week. At the start of the experiment, mice were randomly divided into four groups (n=10 for each group). Three of the four groups were fed ad libitum a Western diet (WD) with 40% Kcal from fat and containing 0.15% cholesterol (D12079B, Research Diets) and a sugar water (SW) solution (23.1 g/L d-fructose+18.9 g/L d-glucose) as previously described (DIAMOND model (15)). After 8 weeks, the three groups of WD-fed mice were randomly selected for treatment with vehicle (WD group) or low (WD-50 group) or high dose (WD-100 group) of […]. The WD group was fed WD and drank sugar water. The WD-50 and WD-100 groups were fed WD and drank sugar water containing, respectively, 50 or 100 mg […] per kg body weight. The treatments were continued for another 8 weeks. Water bottles containing SW and […] or only SW were changed every other day. […] The protein concentration was determined using the BCA protein assay kit (Pierce). […] Proteins were quantified by normalizing the intensity of the protein band of interest to the intensity of the j-actin band in the same lane using the Image Lab software (Bio-Rad, Hercules, CA).

[2] = test system: hepatocytes; test: Cultured hepatocytes (lipid droplet loaded, TNF-α; Fasn/SREBP-1c expression); format: cell-based
[3] = test system: endotoxin-treated murine bone marrow derived macrophages; test: Cytokine expression in endotoxin-treated bone marrow derived macrophages; format: cell-based

O=C([O-])Cc1c[nH]c2ccccc12.[Na+] [I3A, Indole-3-acetate sodium salt]
liver AMPK and p-AMPK levels [1]: increased both AMPK as well as p-AMPK | TNF-α induced production of saturated free fatty acids ([2]; cultured hepatocytes loaded with lipid droplets (mimicking steatosis), AhR dependent): abrogated TNF-α induced production of saturated free fatty acids | expression of Fasn and SREBP-1c ([2]; hepatocytes, AhR dependent manner): decreased the expression of Fasn and its transcriptional regulator SREBP-1c | expression of IL-1, TNF-α, and MCP-1 [3]: dose-dependently downregulate the expression of IL-1, TNF-α, and MCP-1
